Test results reported in patent US20240208961A1, “EIF4E INHIBITORS AND USES THEREOF” (PIC Therapeutics, Inc., priority 2022, published 2024).
Values joined by “and” are separate entries in the source; they are usually repeats but may differ in a detail not shown here. Identical values can stand only once. Like-named read-outs stand apart in the source and are kept apart here.

Columns and labels:
[1] = Pharmacokinetic studies of certain compounds in female Balb/c mice (Example 5); type: in vivo
Summary of the method: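 Female Balb/c mice (N=9) were fasted overnight and given compound PO as a suspension in 1% CMC/0.2% Tween 80 or IV in 5% DMSO/5% Solutol HS15/90% saline. Facial-vein plasma was taken from 0.083 to 24 h and assayed by LC-MS. Parameters are non-compartmental, and F was based on AUCINF or AUClast.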

LoVo = assay: Cell viability assay, adherent cell line, 5 day Alamar Blue (Example 8): LoVo; type: cell-based; details: Homo sapiens, 120 h, Colorectal Cancer Cell Viability
MM.1S = assay: Cell viability assay, suspension cell line, 5 day Alamar Blue (Example 8): MM.1S; type: cell-based; details: Homo sapiens, MM1.S, 120 h, Multiple Myeloma (Steroid Sensitive) Cancer Cell
[2] = I-29 IV 1.48 mg/kg, 4 hr, BQL = below quantifiable limit of 3.00 ng/mL
[3] = I-29 IV 1.48 mg/kg, 8 hr, BQL = below quantifiable limit of 3.00 ng/mL
[4] = I-29 IV 1.48 mg/kg, 24 hr, BQL = below quantifiable limit of 3.00 ng/mL
[5] = I-29 PO 23.8 mg/kg, 24 hr, BQL = below quantifiable limit of 3.00 ng/mL
[6] = mouse, plasma, I-29 IV 1.48 mg/kg
[7] = mouse, plasma, I-29 PO 23.8 mg/kg

CC(C)Cc1sc(Nc2ncc(-c3cccs3)cc2C(=O)O)nc1C1CCC(F)(F)CC1 [Compound I-29]
Plasma concentration Individual ([1]; I-29 IV 1.48 mg/kg, 0.083 hr, 1.48 mg/kg): 641 ng/mL and 603 ng/mL
Plasma concentration Individual ([1]; I-29 IV 1.48 mg/kg, 0.25 hr, 1.48 mg/kg): 121 ng/mL and 162 ng/mL and 336 ng/mL
Plasma concentration Individual ([1]; I-29 IV 1.48 mg/kg, 0.5 hr, 1.48 mg/kg): 71.2 ng/mL and 51.0 ng/mL
Plasma concentration Individual ([1]; I-29 IV 1.48 mg/kg, 1 hr, 1.48 mg/kg): 15.9 ng/mL and 81.1 ng/mL and 29.6 ng/mL
Plasma concentration Individual ([1]; I-29 IV 1.48 mg/kg, 2 hr, 1.48 mg/kg): 3.54 ng/mL and 4.97 ng/mL and 7.24 ng/mL
Plasma concentration Individual [1, 2]: BQL
Plasma concentration Mean [1, 2]: BQL
Plasma concentration Individual [1, 3]: BQL
Plasma concentration Mean [1, 3]: BQL
Plasma concentration Individual [1, 4]: BQL
Plasma concentration Mean [1, 4]: BQL
F ([1]; I-29 PO 23.8 mg/kg vs IV 1.48 mg/kg): 67.3%
Plasma concentration Individual ([1]; I-29 PO 23.8 mg/kg, 0.083 hr, 23.8 mg/kg): 39.6 ng/mL and 53.6 ng/mL
Plasma concentration Individual ([1]; I-29 PO 23.8 mg/kg, 0.25 hr, 23.8 mg/kg): 147 ng/mL and 146 ng/mL
Plasma concentration Individual ([1]; I-29 PO 23.8 mg/kg, 0.5 hr, 23.8 mg/kg): 344 ng/mL and 464 ng/mL
Plasma concentration Individual ([1]; I-29 PO 23.8 mg/kg, 1 hr, 23.8 mg/kg): 237 ng/mL and 618 ng/mL and 703 ng/mL
Plasma concentration Individual ([1]; I-29 PO 23.8 mg/kg, 2 hr, 23.8 mg/kg): 620 ng/mL and 640 ng/mL
Plasma concentration Individual ([1]; I-29 PO 23.8 mg/kg, 4 hr, 23.8 mg/kg): 147 ng/mL and 218 ng/mL
Plasma concentration Individual ([1]; I-29 PO 23.8 mg/kg, 8 hr, 23.8 mg/kg): 106 ng/mL and 75.9 ng/mL
Plasma concentration Individual [1, 5]: BQL
Plasma concentration Mean [1, 5]: BQL
concentration at 0.083 hr ([1]; female, Balb/c, mouse, plasma, iv, 1.48 mg/kg, I-29 IV 1.48 mg/kg, 0.083 hr, read-out: Plasma concentration Individual): 558 ng/mL
concentration at 0.083 hr ([1]; female, Balb/c, mouse, plasma, iv, 1.48 mg/kg, I-29 IV 1.48 mg/kg, 0.083 hr, read-out: Plasma concentration Mean): 601 ng/mL
concentration at 0.25 hr ([1]; female, Balb/c, mouse, plasma, iv, 1.48 mg/kg, I-29 IV 1.48 mg/kg, 0.25 hr, read-out: Plasma concentration Mean): 206 ng/mL
concentration at 0.5 h ([1]; female, Balb/c, mouse, plasma, iv, 1.48 mg/kg, I-29 IV 1.48 mg/kg, 0.5 hr, read-out: Plasma concentration Individual): 95.5 ng/mL
concentration at 0.5 h ([1]; female, Balb/c, mouse, plasma, iv, 1.48 mg/kg, I-29 IV 1.48 mg/kg, 0.5 hr, read-out: Plasma concentration Mean): 72.6 ng/mL
concentration at 1 h ([1]; female, Balb/c, mouse, plasma, iv, 1.48 mg/kg, I-29 IV 1.48 mg/kg, 1 hr, read-out: Plasma concentration Mean): 42.2 ng/mL
concentration at 2 hr ([1]; female, Balb/c, mouse, plasma, iv, 1.48 mg/kg, I-29 IV 1.48 mg/kg, 2 hr, read-out: Plasma concentration Mean): 5.25 ng/mL
concentration at 0.083 hr ([1]; female, Balb/c, mouse, plasma, po, 23.8 mg/kg, I-29 PO 23.8 mg/kg, 0.083 hr, read-out: Plasma concentration Individual): 31.6 ng/mL
concentration at 0.083 hr ([1]; female, Balb/c, mouse, plasma, po, 23.8 mg/kg, I-29 PO 23.8 mg/kg, 0.083 hr, read-out: Plasma concentration Mean): 41.6 ng/mL
concentration at 0.25 hr ([1]; female, Balb/c, mouse, plasma, po, 23.8 mg/kg, I-29 PO 23.8 mg/kg, 0.25 hr, read-out: Plasma concentration Individual): 160 ng/mL
concentration at 0.25 hr ([1]; female, Balb/c, mouse, plasma, po, 23.8 mg/kg, I-29 PO 23.8 mg/kg, 0.25 hr, read-out: Plasma concentration Mean): 151 ng/mL
concentration at 0.5 hr ([1]; female, Balb/c, mouse, plasma, po, 23.8 mg/kg, I-29 PO 23.8 mg/kg, 0.5 hr, read-out: Plasma concentration Individual): 305 ng/mL
concentration at 0.5 hr ([1]; female, Balb/c, mouse, plasma, po, 23.8 mg/kg, I-29 PO 23.8 mg/kg, 0.5 hr, read-out: Plasma concentration Mean): 371 ng/mL
concentration at 1 hr ([1]; female, Balb/c, mouse, plasma, po, 23.8 mg/kg, I-29 PO 23.8 mg/kg, 1 hr, read-out: Plasma concentration Mean): 519 ng/mL
concentration at 2 hr ([1]; female, Balb/c, mouse, plasma, po, 23.8 mg/kg, I-29 PO 23.8 mg/kg, 2 hr, read-out: Plasma concentration Individual): 554 ng/mL
concentration at 2 hr ([1]; female, Balb/c, mouse, plasma, po, 23.8 mg/kg, I-29 PO 23.8 mg/kg, 2 hr, read-out: Plasma concentration Mean): 605 ng/mL
concentration at 4 hr ([1]; female, Balb/c, mouse, plasma, po, 23.8 mg/kg, I-29 PO 23.8 mg/kg, 4 hr, read-out: Plasma concentration Individual): 187 ng/mL
concentration at 4 hr ([1]; female, Balb/c, mouse, plasma, po, 23.8 mg/kg, I-29 PO 23.8 mg/kg, 4 hr, read-out: Plasma concentration Mean): 184 ng/mL
concentration at 8 hr ([1]; female, Balb/c, mouse, plasma, po, 23.8 mg/kg, I-29 PO 23.8 mg/kg, 8 hr, read-out: Plasma concentration Individual): 57.1 ng/mL
concentration at 8 hr ([1]; female, Balb/c, mouse, plasma, po, 23.8 mg/kg, I-29 PO 23.8 mg/kg, 8 hr, read-out: Plasma concentration Mean): 79.7 ng/mL
AUC(0-inf) [1, 6]: 225 ng·h/mL
AUC(0-t) [1, 6]: 222 ng·h/mL
C0 [1, 6]: 1020 ng/mL
MRT inf [1, 6]: 0.33 h
MRT last [1, 6]: 0.304 h
clearance [1, 6]: 110 mL/min/kg
half-life [1, 6]: 0.352 h
Vd ([1]; mouse, plasma, I-29 IV 1.48 mg/kg, read-out: Vss): 2.18 L/kg
AUC(0-inf) [1, 7]: 2430 ng·h/mL
AUC(0-t) [1, 7]: 2180 ng·h/mL
Cmax [1, 7]: 605 ng/mL
MRT inf [1, 7]: 3.51 h
MRT last [1, 7]: 2.64 h
Tmax [1, 7]: 2 h
half-life [1, 7]: 2.17 h
IC50 (LoVo): 1 to 8 µM
IC50 (MM.1S): 1 to 8 µM
